Here are results for six molecules from ChEMBL document CHEMBL5291721, “A preclinical secondary pharmacology resource illuminates target-adverse drug reaction associations of marketed drugs” (Nat Commun, 2023).

For one experiment, the target named is Histamine H2 receptor (Homo sapiens, UniProt P25021).
The target of experiment [1] is T1, Muscarinic acetylcholine receptor M5 (Homo sapiens, UniProt P08912).
T1 sequence (P08912 whole entry): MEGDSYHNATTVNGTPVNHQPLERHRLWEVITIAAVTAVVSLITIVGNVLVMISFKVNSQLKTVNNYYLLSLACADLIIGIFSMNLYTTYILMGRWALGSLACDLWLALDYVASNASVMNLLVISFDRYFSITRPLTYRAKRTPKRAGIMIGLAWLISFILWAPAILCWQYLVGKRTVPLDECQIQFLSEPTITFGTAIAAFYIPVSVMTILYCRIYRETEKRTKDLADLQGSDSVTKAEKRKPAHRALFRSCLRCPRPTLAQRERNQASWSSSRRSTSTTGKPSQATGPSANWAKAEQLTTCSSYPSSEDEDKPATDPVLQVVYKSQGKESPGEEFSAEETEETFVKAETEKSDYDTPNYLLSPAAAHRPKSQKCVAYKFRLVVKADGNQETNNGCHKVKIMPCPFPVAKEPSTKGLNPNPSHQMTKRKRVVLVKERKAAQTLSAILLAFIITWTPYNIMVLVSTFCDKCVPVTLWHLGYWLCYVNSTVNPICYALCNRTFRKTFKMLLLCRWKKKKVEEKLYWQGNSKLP

A further experiment deals with T2, D(4) dopamine receptor (Homo sapiens, UniProt P21917).
T2 sequence (P21917 whole entry): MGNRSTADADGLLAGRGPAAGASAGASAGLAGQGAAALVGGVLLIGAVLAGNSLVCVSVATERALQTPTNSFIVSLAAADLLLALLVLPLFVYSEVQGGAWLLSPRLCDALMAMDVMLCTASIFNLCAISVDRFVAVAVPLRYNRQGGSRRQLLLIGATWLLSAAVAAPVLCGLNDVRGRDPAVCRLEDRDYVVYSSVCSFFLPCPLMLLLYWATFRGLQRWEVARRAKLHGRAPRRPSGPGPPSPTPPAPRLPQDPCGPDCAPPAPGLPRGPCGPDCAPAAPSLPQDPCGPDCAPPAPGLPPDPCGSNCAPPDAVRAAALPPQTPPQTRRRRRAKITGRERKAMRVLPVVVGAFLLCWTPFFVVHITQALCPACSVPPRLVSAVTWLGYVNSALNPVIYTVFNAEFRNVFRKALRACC

Experiment [2] concerns the target T3, Endothelin receptor type B (Homo sapiens, UniProt P24530).
T3 sequence (P24530 whole entry): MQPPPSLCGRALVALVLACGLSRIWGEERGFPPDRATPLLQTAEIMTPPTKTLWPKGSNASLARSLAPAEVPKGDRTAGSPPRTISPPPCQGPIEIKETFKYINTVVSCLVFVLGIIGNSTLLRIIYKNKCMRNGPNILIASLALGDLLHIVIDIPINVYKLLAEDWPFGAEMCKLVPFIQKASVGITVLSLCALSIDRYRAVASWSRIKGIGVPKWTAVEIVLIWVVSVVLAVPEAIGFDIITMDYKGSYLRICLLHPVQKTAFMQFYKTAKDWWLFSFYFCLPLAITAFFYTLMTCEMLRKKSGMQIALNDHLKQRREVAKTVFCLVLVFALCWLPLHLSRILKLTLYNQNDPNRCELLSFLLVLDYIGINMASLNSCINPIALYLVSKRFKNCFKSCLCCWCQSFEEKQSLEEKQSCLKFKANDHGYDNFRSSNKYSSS

The next experiment deals with Estrogen receptor beta (Homo sapiens, UniProt Q92731).
Sequence of Estrogen receptor beta (Q92731 whole entry): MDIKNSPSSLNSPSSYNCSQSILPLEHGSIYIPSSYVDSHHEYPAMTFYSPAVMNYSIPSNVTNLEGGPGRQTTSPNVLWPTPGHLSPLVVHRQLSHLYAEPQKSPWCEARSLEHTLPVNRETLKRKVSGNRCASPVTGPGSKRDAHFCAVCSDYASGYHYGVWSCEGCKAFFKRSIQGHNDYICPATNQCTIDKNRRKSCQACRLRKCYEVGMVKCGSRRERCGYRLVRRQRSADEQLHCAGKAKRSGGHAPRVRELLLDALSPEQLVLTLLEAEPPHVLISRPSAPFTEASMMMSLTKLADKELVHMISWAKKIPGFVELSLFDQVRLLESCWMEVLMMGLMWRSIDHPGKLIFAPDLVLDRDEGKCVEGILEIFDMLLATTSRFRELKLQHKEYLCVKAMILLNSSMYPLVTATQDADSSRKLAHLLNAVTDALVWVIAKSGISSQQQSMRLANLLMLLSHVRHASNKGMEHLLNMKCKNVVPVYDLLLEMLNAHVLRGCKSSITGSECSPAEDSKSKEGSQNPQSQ
In a further experiment the target is T4, Glucocorticoid receptor (Homo sapiens, UniProt P04150).
T4 sequence (P04150 whole entry): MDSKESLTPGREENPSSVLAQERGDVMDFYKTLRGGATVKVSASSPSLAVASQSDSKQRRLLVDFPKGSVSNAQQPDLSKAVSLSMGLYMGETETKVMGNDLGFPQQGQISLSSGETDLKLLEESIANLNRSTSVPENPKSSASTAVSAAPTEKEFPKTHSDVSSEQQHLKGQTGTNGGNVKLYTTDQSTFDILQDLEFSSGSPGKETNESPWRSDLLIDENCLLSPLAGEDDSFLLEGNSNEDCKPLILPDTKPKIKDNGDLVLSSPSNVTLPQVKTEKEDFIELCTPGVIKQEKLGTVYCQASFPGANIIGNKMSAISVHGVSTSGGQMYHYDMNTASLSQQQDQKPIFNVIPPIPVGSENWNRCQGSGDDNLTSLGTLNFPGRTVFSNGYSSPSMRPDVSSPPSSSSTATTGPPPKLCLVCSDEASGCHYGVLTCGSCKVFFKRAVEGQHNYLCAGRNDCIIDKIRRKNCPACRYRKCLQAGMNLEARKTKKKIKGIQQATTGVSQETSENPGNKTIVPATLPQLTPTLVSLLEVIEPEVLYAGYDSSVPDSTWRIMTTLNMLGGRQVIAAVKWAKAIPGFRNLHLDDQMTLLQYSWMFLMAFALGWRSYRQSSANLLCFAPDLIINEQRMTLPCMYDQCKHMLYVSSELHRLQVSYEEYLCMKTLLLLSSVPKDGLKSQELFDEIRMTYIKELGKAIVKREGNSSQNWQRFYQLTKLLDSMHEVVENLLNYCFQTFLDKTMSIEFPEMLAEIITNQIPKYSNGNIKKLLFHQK
The format is functional.

The target in experiment [3] is Voltage-dependent L-type calcium channel subunit alpha-1C (Homo sapiens, UniProt Q13936). The format is functional, cell-based.
Sequence of Voltage-dependent L-type calcium channel subunit alpha-1C (Q13936 whole entry): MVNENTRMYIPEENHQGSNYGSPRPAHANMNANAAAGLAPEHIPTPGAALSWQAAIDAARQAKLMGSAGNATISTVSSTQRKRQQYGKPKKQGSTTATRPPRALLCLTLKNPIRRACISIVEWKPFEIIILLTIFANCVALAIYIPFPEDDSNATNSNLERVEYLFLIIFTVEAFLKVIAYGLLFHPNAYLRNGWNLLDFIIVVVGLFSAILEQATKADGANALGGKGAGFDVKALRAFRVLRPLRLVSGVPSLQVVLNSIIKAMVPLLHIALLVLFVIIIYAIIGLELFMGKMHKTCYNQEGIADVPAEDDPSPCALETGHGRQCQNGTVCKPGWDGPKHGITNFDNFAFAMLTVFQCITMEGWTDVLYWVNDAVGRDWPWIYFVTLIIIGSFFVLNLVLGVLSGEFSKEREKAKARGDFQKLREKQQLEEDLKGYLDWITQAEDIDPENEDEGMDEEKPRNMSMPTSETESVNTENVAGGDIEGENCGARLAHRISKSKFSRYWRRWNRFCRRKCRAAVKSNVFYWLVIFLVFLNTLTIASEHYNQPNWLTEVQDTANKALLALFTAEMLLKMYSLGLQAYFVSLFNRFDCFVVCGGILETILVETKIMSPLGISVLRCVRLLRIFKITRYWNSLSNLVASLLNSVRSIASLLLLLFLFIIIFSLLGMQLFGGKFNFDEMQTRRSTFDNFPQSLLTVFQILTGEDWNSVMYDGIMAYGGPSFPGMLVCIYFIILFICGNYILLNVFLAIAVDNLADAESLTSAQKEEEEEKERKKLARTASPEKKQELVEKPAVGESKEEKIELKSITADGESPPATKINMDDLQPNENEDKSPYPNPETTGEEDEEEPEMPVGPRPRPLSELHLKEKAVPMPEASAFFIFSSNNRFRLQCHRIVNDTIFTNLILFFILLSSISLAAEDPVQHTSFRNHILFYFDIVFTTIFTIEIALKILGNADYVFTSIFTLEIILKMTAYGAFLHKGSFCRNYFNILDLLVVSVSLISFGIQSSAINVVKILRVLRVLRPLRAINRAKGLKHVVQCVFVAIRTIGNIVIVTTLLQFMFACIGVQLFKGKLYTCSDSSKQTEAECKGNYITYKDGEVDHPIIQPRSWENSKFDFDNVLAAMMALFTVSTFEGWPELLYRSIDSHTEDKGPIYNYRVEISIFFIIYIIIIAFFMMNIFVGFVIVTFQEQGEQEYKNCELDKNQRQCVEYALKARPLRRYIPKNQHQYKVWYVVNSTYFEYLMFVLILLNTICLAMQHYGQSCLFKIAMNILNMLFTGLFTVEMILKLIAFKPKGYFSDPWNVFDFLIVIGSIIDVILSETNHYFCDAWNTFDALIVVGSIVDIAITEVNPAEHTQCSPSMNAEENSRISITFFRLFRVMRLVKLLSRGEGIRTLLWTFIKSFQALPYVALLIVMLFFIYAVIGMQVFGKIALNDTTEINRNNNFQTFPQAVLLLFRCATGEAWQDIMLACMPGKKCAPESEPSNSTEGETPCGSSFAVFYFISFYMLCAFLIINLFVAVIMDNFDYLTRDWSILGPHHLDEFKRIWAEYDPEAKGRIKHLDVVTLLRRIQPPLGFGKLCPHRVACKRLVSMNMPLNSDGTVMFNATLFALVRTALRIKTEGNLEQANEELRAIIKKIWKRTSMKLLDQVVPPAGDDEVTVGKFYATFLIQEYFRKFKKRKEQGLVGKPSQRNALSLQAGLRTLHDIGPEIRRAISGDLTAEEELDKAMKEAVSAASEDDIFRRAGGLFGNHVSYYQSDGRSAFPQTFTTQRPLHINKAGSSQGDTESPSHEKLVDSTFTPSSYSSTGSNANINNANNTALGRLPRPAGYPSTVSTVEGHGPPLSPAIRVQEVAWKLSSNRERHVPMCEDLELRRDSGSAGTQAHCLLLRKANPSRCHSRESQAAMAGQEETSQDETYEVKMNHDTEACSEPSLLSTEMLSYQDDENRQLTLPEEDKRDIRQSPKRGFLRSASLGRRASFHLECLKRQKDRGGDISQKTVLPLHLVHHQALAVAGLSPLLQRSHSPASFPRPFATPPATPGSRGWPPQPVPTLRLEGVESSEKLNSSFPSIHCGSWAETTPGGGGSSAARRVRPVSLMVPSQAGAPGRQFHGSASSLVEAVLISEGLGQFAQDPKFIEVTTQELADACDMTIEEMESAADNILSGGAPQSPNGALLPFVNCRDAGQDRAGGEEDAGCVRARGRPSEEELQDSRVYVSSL
Also: assay procedure not described here.

Sequence of Histamine H2 receptor (P25021 whole entry): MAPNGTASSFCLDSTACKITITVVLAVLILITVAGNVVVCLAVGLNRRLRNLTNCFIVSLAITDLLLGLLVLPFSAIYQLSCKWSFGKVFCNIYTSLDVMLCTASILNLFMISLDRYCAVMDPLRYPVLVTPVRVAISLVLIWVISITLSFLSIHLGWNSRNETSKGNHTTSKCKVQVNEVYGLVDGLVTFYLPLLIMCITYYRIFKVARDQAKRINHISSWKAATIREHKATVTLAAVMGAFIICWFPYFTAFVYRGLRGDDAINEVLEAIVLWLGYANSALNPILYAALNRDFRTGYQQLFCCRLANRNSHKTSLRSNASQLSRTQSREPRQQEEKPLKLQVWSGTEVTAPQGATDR

The term AC50 denotes the midpoint of the concentration-response curve, whichever way the signal moves. For the molecule `Cc1ccc(O)c([C@H](CCN(C(C)C)C(C)C)c2ccccc2)c1` [TOLTERODINE], the AC50 at Histamine H2 receptor is 3.2 µM; in experiment [1], 0.0065 µM; on D(4) dopamine receptor, > 10 µM.

For the molecule `C[C@]12C=CC(=O)C=C1CC[C@@H]1[C@@H]2[C@@H](O)C[C@@]2(C)[C@H]1CC[C@]2(O)C(=O)CO` [PREDNISOLONE], the AC50 (in experiment [2]; on Estrogen receptor beta) was > 30 µM in each case.

`CC1(C)O[C@@H]2C[C@H]3[C@@H]4CCC5=CC(=O)C=C[C@]5(C)[C@@]4(F)[C@@H](O)C[C@]3(C)[C@]2(C(=O)CO)O1` [TRIAMCINOLONE ACETONIDE] gave a half-maximal activity concentration (AC50) on Glucocorticoid receptor of 0.0039 µM.

For `N=C(N)NC(=O)c1nc(Cl)c(N)nc1N` [AMILORIDE], the AC50 in experiment [2] was > 30 µM; on Histamine H2 receptor, > 10 µM; in experiment [1], > 10 µM; at D(4) dopamine receptor it was > 10 µM; at Estrogen receptor beta it was > 30 µM.

For `C[C@@H]1CN(c2c(F)c(N)c3c(=O)c(C(=O)O)cn(C4CC4)c3c2F)C[C@H](C)N1` [SPARFLOXACIN], the half-maximal activity concentration (AC50) in experiment [3] was > 50 µM.

Take `COc1cccc2c1C(=O)c1c(O)c3c(c(O)c1C2=O)C[C@@](O)(C(=O)CO)C[C@@H]3O[C@H]1C[C@H](N)[C@H](O)[C@H](C)O1` [DOXORUBICIN]: the AC50 in experiment [3] was > 50 µM; on Glucocorticoid receptor, 11 µM.
